Source: US9567336B2, “Conjugated TLR7 and/or TLR8 and TLR2 agonists” (CAYLA, priority 2012, dated 2017)

System: B16-F1 cells
Experiment: B16-F1 allograft tumor mouse model, intra-tumoral injections
Assay type: in vivo, C57BL/6 mice
Details: 3 intra-tumoral injections
Description: To investigate whether administering in vivo a therapeutically effective amount of a composition concerned by the invention into a tumor environment affects tumor growth, C57BL/6 mice (Janvier S.A.S.) were shaved (on their backs) and were injected subcutaneously with approximately 50 μl (5×10^5) of viable B16-F1 cells (ATCC, CRL-6323) under anesthesia, using 7 mice per group. Once the tumor volume reached about 5 mm in diameter, around day 7 after tumor cells were grafted, the mice were divided into 2 groups. A first group (control) received intra-tumoral injections of vehicle (Glucose 5% ethanol 8% that is often used to facilitate drug solubilization and so enhance delivery), for a total of 3 injections. All animal work was carried out at the animal facility at the Institut de Pharmacologie et de Biologie Structurale (IPBS) in Toulouse, in accordance with institutional guidelines. […] By day 51 following the tumor cell graft, 60% of mice in the CL401 conjugated TLR7-TLR2 small molecule treated group were still alive. In contrast, by day 26, there was no survival of mice from the control group of vehicle treated. Tumor growth was monitored and measured with calipers after day 5 of grafting tumor cells into mice and then every 2 days after. […] Tumor volume in mm^3 was determined according to the formula V=W^2×L/2, where L=length (mm) and W=width (mm)

CCCCCCCCCCCCCCCC(=O)OCC(CSC[C@H](N)C(=O)Nc1ccc(Cn2c(O)nc3c(N)nc(NCCCC)nc32)cc1)OC(=O)CCCCCCCCCCCCCCC (mixture of isomers) [CL401, (R)-3-(2-amino-3-(4-((6-amino-2-(butylamino)-8-hydroxy-9H-purin-9-yl)methyl)phenylamino)-3-oxopropylthio)propane-1,2-diyl dipalmitate]
mice still alive (survival) (by day 51 following the tumor cell graft, FIG. 6B): 60%
tumor growth (compared to vehicle control mice, FIG. 6A): significantly reduced
